Data from the supplement of paper PMC11061612.

Experiments:
[1] = system: SNU-61 (Colorectal Carcinoma); assay: Bliss excess, mean over the matrix (fraction); higher = more synergy
Method in brief: (§1)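 Cell lines grown in DMEM/F12 or RPMI with 10% FBS were plated in 1536-well plates and held 24 hours at 37°C, 5% CO2 before 72 hours of exposure to two-drug dose matrices, with DMSO typically at 0.2%. CellTiter-Glo 2.0 luminescence gave viability, which was converted to inhibition. Vehicle wells were set to 0 and blank wells to 1. Combination Emax is the second-highest inhibition in the matrix, and Bliss excess is the observed combination effect minus the expected EA + EB − EA·EB, where EA and EB are the single-agent effects.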

[2] = system: HCC-827 (Lung Adenocarcinoma); assay: as above
Method in brief: as §1

[3] = system: ETK-1 (Biliary Tract Carcinoma); assay: as above
Method in brief: as §1

[4] = system: KG-1 (Acute Myeloid Leukemia); assay: as above
Method in brief: as §1

[5] = system: EFM-192A (Breast Carcinoma); assay: as above
Method in brief: as §1

[6] = system: GDM-1 (Acute Myeloid Leukemia); assay: as above
Method in brief: as §1

[7] = system: MES-SA (Other Solid Carcinomas); assay: as above
Method in brief: as §1

[8] = system: TYK-nu (Ovarian Carcinoma); assay: as above
Method in brief: as §1

[9] = system: HOP-92 (Non-Small Cell Lung Carcinoma); assay: as above
Method in brief: as §1

[10] = system: PA-TU-8902 (Pancreatic Carcinoma); assay: as above
Method in brief: as §1

[11] = system: JHH-6 (Hepatocellular Carcinoma); assay: as above
Method in brief: as §1

[12] = system: NCI-H1688 (Small Cell Lung Carcinoma); assay: as above
Method in brief: as §1

[13] = system: HCC1143 (Breast Carcinoma); assay: as above
Method in brief: as §1

A172 (Glioblastoma) [14] = assay: as above
Method in brief: as §1

HuO9 (Osteosarcoma) [15] = assay: as above
Method in brief: as §1

[16] = system: U-118-MG (Low Grade Glioma); assay: as above
Method in brief: as §1

MCF7 (Breast Carcinoma) [17] = assay: as above
Method in brief: as §1

[18] = system: 647-V (Bladder Carcinoma); assay: as above
Method in brief: as §1

[19] = system: RCC10RGB (Kidney Carcinoma); assay: as above
Method in brief: as §1

[20] = system: SKN-3 (Head and Neck Carcinoma); assay: as above
Method in brief: as §1

[21] = system: SNU-61 (Colorectal Carcinoma); assay: combination Emax (second highest fraction inhibited in the dose matrix, 72 h); higher = more inhibition; extreme values may be limits of the assay
Method in brief: as §1

[22] = system: HCC-827 (Lung Adenocarcinoma); assay: as above
Method in brief: as §1

[23] = system: ETK-1 (Biliary Tract Carcinoma); assay: as above
Method in brief: as §1

[24] = system: KG-1 (Acute Myeloid Leukemia); assay: as above
Method in brief: as §1

[25] = system: EFM-192A (Breast Carcinoma); assay: as above
Method in brief: as §1

[26] = system: GDM-1 (Acute Myeloid Leukemia); assay: as above
Method in brief: as §1

[27] = system: MES-SA (Other Solid Carcinomas); assay: as above
Method in brief: as §1

[28] = system: TYK-nu (Ovarian Carcinoma); assay: as above
Method in brief: as §1

[29] = system: HOP-92 (Non-Small Cell Lung Carcinoma); assay: as above
Method in brief: as §1

[30] = system: PA-TU-8902 (Pancreatic Carcinoma); assay: as above
Method in brief: as §1

[31] = system: JHH-6 (Hepatocellular Carcinoma); assay: as above
Method in brief: as §1

[32] = system: NCI-H1688 (Small Cell Lung Carcinoma); assay: as above
Method in brief: as §1

[33] = system: HCC1143 (Breast Carcinoma); assay: as above
Method in brief: as §1

A172 (Glioblastoma) [34] = assay: as above
Method in brief: as §1

HuO9 (Osteosarcoma) [35] = assay: as above
Method in brief: as §1

[36] = system: U-118-MG (Low Grade Glioma); assay: as above
Method in brief: as §1

MCF7 (Breast Carcinoma) [37] = assay: as above
Method in brief: as §1

[38] = system: 647-V (Bladder Carcinoma); assay: as above
Method in brief: as §1

[39] = system: RCC10RGB (Kidney Carcinoma); assay: as above
Method in brief: as §1

[40] = system: SKN-3 (Head and Neck Carcinoma); assay: as above
Method in brief: as §1
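Wherever Bliss excess, mean over the matrix is given: after 72 h of two-drug dosing.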

Row | SMILES | Bliss excess [1] | Bliss excess [2] | Bliss excess [3] | Bliss excess [4] | Bliss excess [5] | Bliss excess [6] | Bliss excess [7] | Bliss excess [8] | Bliss excess [9] | Bliss excess [10] | Bliss excess [11] | Bliss excess [12] | Bliss excess [13] | Bliss excess (A172 (Glioblastoma) [14]) | Bliss excess (HuO9 (Osteosarcoma) [15]) | Bliss excess [16] | Bliss excess (MCF7 (Breast Carcinoma) [17]) | Bliss excess [18] | Bliss excess [19] | Bliss excess [20] | combination Emax [21] | combination Emax [22] | combination Emax [23] | combination Emax [24] | combination Emax [25] | combination Emax [26] | combination Emax [27] | combination Emax [28] | combination Emax [29] | combination Emax [30] | combination Emax [31] | combination Emax [32] | combination Emax [33] | combination Emax (A172 (Glioblastoma) [34]) | combination Emax (HuO9 (Osteosarcoma) [35]) | combination Emax [36] | combination Emax (MCF7 (Breast Carcinoma) [37]) | combination Emax [38] | combination Emax [39] | combination Emax [40]
1 | COc1nnc2ccc(N3CCC(c4ccc(OCCN5CCN(C)C(=O)[C@H]5C)cc4)CC3)nn12 [AZD5153] + CN(CC[C@H](CSC1=CC=CC=C1)NC2=C(C=C(C=C2)S(=O)(=O)NC(=O)C3=CC=C(C=C3)N4CCC(CC4)[C@H](C5=CC=CC=C5C6=CC=C(C=C6)Cl)O)S(=O)(=O)C(F)(F)F)CCO [AZD4320] (first compound max 1 µM, 7x7, partner max 1 µM) | -0.005 | 0.0292 | 0.0015 | 0.0754 | 0.0355 | 0.0276 | 0.0545 | 0.0168 | 0.0252 | 0.0058 | -0.0296 | -0.0021 | 0.0577 | 0.037 | 0.028 | 0.0051 | -0.0031 | 0.0463 | -0.0004 | -0.0093 | 0.392 | 0.483 | 0.48 | 1 | 0.308 | 1 | 0.393 | 0.628 | 0.936 | 0.269 | 0.521 | 0.509 | 0.454 | 0.568 | 0.938 | 0.417 | 0.699 | 0.513 | 0.548 | 0.452
2 | CC(=O)c1c(C)c2cnc(Nc3ccc(N4CCNCC4)cn3)nc2n(C2CCCC2)c1=O [Palbociclib] + CN(CC[C@H](CSC1=CC=CC=C1)NC2=C(C=C(C=C2)S(=O)(=O)NC(=O)C3=CC=C(C=C3)N4CCC(CC4)[C@H](C5=CC=CC=C5C6=CC=C(C=C6)Cl)O)S(=O)(=O)C(F)(F)F)CCO [AZD4320] (first compound max 10 µM, 7x7, partner max 1 µM) | -0.0753 | -0.0307 | -0.0826 | 0.0673 | -0.041 | -0.0087 | -0.0374 | -0.0257 | -0.0491 | -0.085 | -0.0496 | -0.0438 | -0.0178 | -0.115 | 0.0272 | -0.0302 | -0.0486 | -0.0393 | -0.0344 | -0.058 | 0.136 | 0.288 | 0.292 | 0.984 | 0.165 | 1 | 0.445 | 0.37 | 0.891 | 0.323 | 0.381 | 0.657 | 0.332 | 0.647 | 0.841 | 0.466 | 0.45 | 0.211 | 0.667 | 0.277
3 | C[C@@H](c1ccc2nccn2c1)n1nnc2ncc(-c3cnn(C)c3)nc21 [Savolitinib] + CN(CC[C@H](CSC1=CC=CC=C1)NC2=C(C=C(C=C2)S(=O)(=O)NC(=O)C3=CC=C(C=C3)N4CCC(CC4)[C@H](C5=CC=CC=C5C6=CC=C(C=C6)Cl)O)S(=O)(=O)C(F)(F)F)CCO [AZD4320] (first compound max 1 µM, 7x7, partner max 1 µM) | -0.0357 | -0.0001 | -0.0216 | -0.0251 | 0.0065 | -0.0256 | -0.0197 | -0.03 | -0.002 | -0.0909 | -0.0639 | 0.0359 | 0.0021 | -0.0551 | -0.0704 | -0.0222 | -0.0156 | -0.0378 | -0.048 | -0.0338 | 0.183 | 0.236 | 0.181 | 0.873 | 0.258 | 1 | 0.152 | 0.283 | 0.888 | 0.26 | 0.0904 | 0.538 | 0.268 | 0.112 | 0.745 | 0.402 | 0.162 | 0.15 | 0.33 | 0.187
